According to PMC5402262, “Synthesis and anti-obesity effects in vivo of Crotadihydrofuran C as a novel PPARγ antagonist from Crotalaria albida” (Scientific Reports, 2017):

Molecular target: T1, PPARγ (Homo sapiens, UniProt P37231)
T1 construct: gene PPARG
T1 sequence (P37231 231-505 limits assumed): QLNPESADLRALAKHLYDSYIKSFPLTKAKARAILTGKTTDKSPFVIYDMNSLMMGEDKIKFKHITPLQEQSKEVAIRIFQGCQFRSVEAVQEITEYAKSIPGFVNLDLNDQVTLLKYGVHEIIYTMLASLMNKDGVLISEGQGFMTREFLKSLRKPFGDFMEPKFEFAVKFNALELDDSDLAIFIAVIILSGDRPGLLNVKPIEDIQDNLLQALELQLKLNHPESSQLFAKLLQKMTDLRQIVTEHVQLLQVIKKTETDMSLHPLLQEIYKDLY
Assay: LanthaScreen TR-FRET competitive binding assay

C=C(C)[C@@H]1Cc2c(ccc(-c3coc4cc(O)ccc4c3=O)c2O)O1 [compound 17, 7, 2′-Dihydroxy-2′′ S-isopropenyl dihydrofuran [6′′, 7′′ : 3′, 4′]-isoflavone]
Ki: 1570 nM
